One compound from EPA's ToxValDB 9.5 (doi:10.2903/j.efsa.2018.5229) can be followed below.

The subject of one data set is Anas platyrhynchos. The settings on record: acute; oral; unspecified; mortality.
Another data set deals with Apis mellifera. The settings on record: acute, mortality.
Another data set has as its system Canidae. The settings on record: chronic; duration: 1 years; oral; Dog Other; body weight.
Another data set deals with Colinus virginianus. The settings on record: reproduction developmental.
For the next data set, the system named is Daphnia magna. The settings on record: chronic/long-term; duration: 21 days; reproduction.
Another data set concerns Ictalurus punctatus. The settings on record: acute; duration: 96 hours; mortality.
The next data set deals with Oryctolagus sp. The settings on record: reproduction developmental; mortality.
In the next data set the test system is Pimephales promelas. The settings on record: chronic/long-term; duration: 35 days.
Another data set has as its system Rattus norvegicus. The settings on record: oral.
Another data set concerns Tagia sp. The settings on record: chronic/long-term; reproduction.
A further data set concerns Chrysoperla externa. In words: LR50; higher = less toxic. The settings on record: not reported; mortality.
Another data set concerns Typhlodromus pyri. In words: LR50; higher = less toxic. The settings on record: not reported; mortality.

Structures are written as SMILES. In brackets after ≈: the same amount, converted by molar mass.

Broadly, the NOAEL is the highest tested level that showed no adverse finding. The term LC50 denotes the concentration lethal to half of the exposed cells or organisms. `CCOC(=O)C1CC(=O)C(=C(O)C2CC2)C(=O)C1` (centres undefined) [Trinexapac-ethyl]: the LD50 is over 2000 mg/kg-day in the data set on Anas platyrhynchos; over 100 µg/piece in the data set with Apis mellifera (dermal); over 83 µg/piece in the data set on Apis mellifera (oral, unspecified); 4210 mg/kg-day in the data set with Rattus norvegicus (acute, mortality). For the same compound, the NOAEL is 32 mg/kg-day in the data set on Canidae; 60 mg/kg-day in the data set on Oryctolagus sp.; at most 34 mg/kg-day in the data set on Rattus norvegicus (subchronic, duration: 90 days, body weight). This compound also had an NOEL in the data set on Colinus virginianus of 17.6 mg/kg-day. The NOEC worked out at 2.4 mg/L in the data set on Daphnia magna, 0.41 mg/L in the data set with Pimephales promelas and 81.9 mg/kg in the data set on Tagia sp.. For the same compound, the LC50 in the data set with Ictalurus punctatus was found to be 35 µg/mL (≈ 139 µM). The LR50 in the data set with Chrysoperla externa is over 400 g/ha; with Typhlodromus pyri, over 15 g/ha.
